Assay results reported in patent publication US20260315497A1, “COMPOSITION FOR TREATING EPILEPSY” (CanaQuest Medical Corp., priority 2022, published 2026).

Key:
Type in all cases: in vivo, Male, CF-1 male mice
[1] = Maximal Electroshock Seizure (MES) Model in mice, Initial Tests; details: Mus musculus, ip, MES 50 mA, 60 Hz, 0.2 sec, i.p., 2 hours after injection, 10 mice per dose, read-out: ED50 (effective dose to protect 50% of mice)
Description: The composition was tested using the Maximal Electroshock Seizure (MES) Model. This is an established procedure to provide an indication of a compound's ability to prevent seizure spread.
(§1) Subjects Male, CF-1 male mice (18-25 grams) were used as subjects. They were housed under standard conditions in the vivarium at the CCBR. They were given 2 days (minimum) to acclimate before testing began.
(§2) Drugs and Doses CBD was provided in pure form and in the described composition. Two four-point dose-response curves were done, one for the pure form CBD and one for the described composition. Ten mice were tested at each dose. (Mice were not re-used.) Compounds were injected intraperitoneally. Testing was done 2 hours after injection. Drugs were injected at a constant volume, and were diluted as necessary using a vehicle of 1:1:18 (Cremophor:alcohol:saline). Dilution is necessary to achieve volumes large enough for injection. Doses were: 0 (vehicle), 25, 50, 100, 200 mg/kg. A 400 mg/kg dose was added later to extend the standard CBD curve.
MES Procedure The MES stimulus consisted of 0.2 sec of 60 Hz since-wave current administered at an intensity of 50 mA via corneal electrodes. The percentage of mice protected against the tonic hindlimb extension component of the resulting seizure was measured. Mice were then euthanized following the procedure.

[2] = Toxicity Assessment: ataxia, Loscher scale, Initial Tests; details: just before the MES test, i.p., standard CBD at any dose
Description: as §1, §2
Toxicity Assessment Ataxia (impaired movement) was assessed using the Loscher scale and was done just before the MES test.

[3] = MES test in mice, Further Tests; details: Mus musculus, ip, MES 50 mA, 60 Hz, 0.2 sec, i.p., 2 hours after injection, Litchfield and Wilcoxon method, read-out: ED50 (effective dose to protect 50% of mice)
From the text: (§3) Subjects Male, CF-1 male mice (18-25 grams) were used as subjects. They were housed under standard conditions in a vivarium at the University of Toronto (CCBR). They were given 2 days (minimum) to acclimate before testing began.
(§4) Drugs and Doses CBD was provided in the form of: 1) standard CBD isolate, 2) CBD in DHA/EPA without emulsification (2% DHA, 2% EPA, 12% “stabilizer”), 3) CBD emulsified in DHA/EPA to produce larger particles (66.2 nm diameter) and 4) CBD emulsified in DHA/EPA to produce smaller particles (32.7 nm diameter). Drugs were injected intraperitoneally at a constant volume, and were diluted as necessary using a vehicle of 1:1:18 (Cremophor:alcohol:saline). Dilution is necessary to achieve volumes large enough for injection. Doses of CBD ranged from 0 (vehicle) to 400 mg/kg. As in our past studies, the MES stimulus was given 2 hours after injection. Dose-response curves were done for each formulation.
MES Procedure The MES stimulus consisted of 0.2 sec of 60 Hz since-wave current administered at an intensity of 50 mA via corneal electrodes. The percentage of mice protected against the tonic hindlimb extension component of the resulting seizure was measured. […]
(§5) Toxicity Assessment Ataxia (impaired movement) was assessed using the Loscher scale and was done just before the MES test. Loscher scores of 2-5 were scored a “toxicity present”. […]

[4] = Toxicity Assessment: ataxia, Loscher scale, Further Tests
From the text: as §3, §4, §5
The Litchfield/Wilcoxon method could not be applied to the toxicity data for technical reasons, so TD50s were calculated from line plots.

C=C(C)[C@@H]1CCC(C)=C[C@H]1c1c(O)cc(CCCCC)cc1O [regular CBD, cannabidiol]
ED50 [1]: 162 mg/kg
signs of toxicity [2]: No mice showed any signs of toxicity
ED50 [3]: 146 mg/kg
TD25 ([4]; Loscher scores of 2-5 = toxicity present, i.p., highest dose tested): 400 mg/kg
TD50 at 2 h ([4]; mouse, in vivo, ip, speculated to be higher than the highest dose tested): > 400 mg/kg
